According to US10709682B2, “Treatment of tinnitus through modulation of chloride co-transporter NKCC1 in the auditory system” (OTOLANUM AG, priority 2011, dated 2020):
“Also recorded” adds a separate entry of the source.

Columns and labels:
tinnitus [1] = details: Westerberg et al., 1996 (baclofen); Piccirillo et al., 2007 (gabapentin); cited from earlier work
NKCC1 versus KCC2 = details: Blaesse et al., 2009, cited from earlier work
[2] = tested on: inner hair cell ribbon synapses; test: Count of inner hair cell ribbon synapses after noise or sham exposure and local treatment; format: in vivo, rat; details: bumetanide 300 μM local at round window, 2 weeks following noise
Experimental: Ribbon synapses of inner hair cells were counted. Sections were viewed using an Olympus AX70 microscope equipped with epifluorescence illumination (100× objective, NA=1.35) and a motorized z-axis. Images were acquired using a CCD camera and the imaging soft-ware Cell^F (OSIS GmbH, Münster, Germany). For Otoferlin and CtBP2/RIBEYE immunopositive spot counting on cryo-sectioned cochleae were performed through imaging over a distance of 8 μm with the complete coverage of the IHC nucleus and beyond in an image-stack along the z-axis (z-stack). Typically z-stacks consisted of 30 layers with a z-increment of 0.276 µm, for each layer one image per fluorochrome was acquired. Z-stacks were 3-dimensionally deconvoluted using Cell^F's RIDE module with the Nearest Neighbour algorithm (OSIS GmbH, Müster, Germany). 20 adult female Wistar rats were anaesthetized as described above for the previous experiments. First, auditory brainstem response (ABR) measurements were performed. As in Experiment 2, they were then exposed in a sound attenuation booth for 1.5 hours to a continuous 10 kHz tone at an intensity of 120 dB SPL (Group A; n×10) or sham exposed in the same setting (Group B; n=10). Animals were treated bilaterally right after noise trauma with either artificial perilymph (AP) or bumetanide (Sigma B3023, Lot 027Ko988). […] Ribbon synapses of inner hair cells were counted as in Experiment 2.

[3] = tested on: KCC2 expression in cochlear tissue; test: Real-time PCR for KCC2 expression in cochlear tissue after noise or sham exposure and local treatment; format: in vivo, rat
Experimental: 20 adult female Wistar rats were anaesthetized as described above for the previous experiments. First, auditory brainstem response (ABR) measurements were performed. As in Experiment 2, they were then exposed in a sound attenuation booth for 1.5 hours to a continuous 10 kHz tone at an intensity of 120 dB SPL (Group A; n×10) or sham exposed in the same setting (Group B; n=10). Animals were treated bilaterally right after noise trauma with either artificial perilymph (AP) or bumetanide (Sigma B3023, Lot 027Ko988). AP was prepared freshly in accordance with Guitton et al., 2003 (140 mM NaCl, 4 mM KCl, 2 mM CaCl2, 2m M MgCl2, 10 mM glucose, 10 mM HePES). Bumetanide (300 μM) was prepared as follows: 50 mg of bumetanide powder was diluted in 6.87 ml AP. This 20 mM stock solution was diluted 1:66 in AP (15.15 μL stock solution and 984.85 μL AP). 5 animals of Group A and 5 animals of Group B received AP (total 10 animals) and 5 animals of Group A and 5 animals of Group B received bumetanide total (10 animals). For the local treatment administration, the fur was removed behind the ears and the bulla exposed in a retro-auricular approach. A small hole was carefully drilled into the bony bulla just above the round window niche (0.6-1 mm in diameter). The mucosa was opened and the region around the round window carefully dried of fluid. Through the hole, a small gel-foam pellet (Gelita Tampon; Braun, Melsungen, Germany) was inserted into the round window niche, 5-8 μl of bumetanide solution or AP were applied on the gel foam by means of a precision pipette with gel loader tips, thus avoiding air bubbles under the gel. […] The hole in the bulla was then covered from the outside with muscular tissue and the wound was sutured with surgical thread (Vicryl, Johnson & Johnson, Norderstedt, Germany). Postoperatively the animals were kept warm with the body temperature being controlled until wake-up. […] For the real-time PCR reaction 12.5 μl of SYBRGreen (QuantiFast Sybr Green, Qiagen), 1 μl Primer Mix, 7.3 μl ddH2O and 4 μl cDNA were used per well. […]

tinnitus [4] = details: cited from earlier work
[5] = tested on: behavioural correlate of tinnitus; details: chronic tinnitus induced by noise trauma; vigabatrin treatment; cited from earlier work

SMILES: NCC(CC(=O)O)c1ccc(Cl)cc1 (stereo not drawn) [baclofen]
- Effect on tinnitus (tinnitus [1]): no effects at all

SMILES: CCCCNc1cc(C(=O)O)cc(S(N)(=O)=O)c1Oc1ccccc1 [bumetanide]
- Affinity for NKCC1 versus KCC2 (NKCC1 versus KCC2; Payne et al., 2003): much higher affinity for NKCC1 than for KCC2
- Decline of inner hair cell ribbons in noise exposed ears that received bumetanide versus sham exposed ([2]; midbasal and basal cochlear turns): not significant
- Inner hair cell ribbon numbers in noise exposed ears, bumetanide versus AP treated ([2]; noise exposed ears, p<0.02): significant difference; also recorded: reduced loss of inner hair cell ribbons
- KCC2 expression (down-regulation) in noise exposed, bumetanide treated ears versus sham exposed ears ([3]; noise exposed ears (10 kHz, 120 dB SPL, 1.5 h), bumetanide 300 μM local at round window, 15 days following treatment): No such down-regulation
- KCC2 expression in noise exposed ears, bumetanide treated versus AP treated ([3]; noise exposed ears, bumetanide 300 μM local at round window, 15 days following treatment, p<0.01): statistically significant difference; also recorded: statistically significantly different
- KCC2 expression, bumetanide versus AP treated, sham exposed ears ([3]; sham exposed ears (Group B), bumetanide 300 μM, 5-8 μl on gel foam at round window niche, cochlear tissue 15 days following treatment): no difference

SMILES: NS(=O)(=O)c1cc(C(=O)O)c(NCc2ccco2)cc1Cl [furosemide]
- Induction of tinnitus and hearing loss (tinnitus [4]; administered at high doses): induce temporary tinnitus and hearing loss
- Suppression of tinnitus (tinnitus [4]; patients, effects only for tinnitus of cochlear rather than central origin): suppress tinnitus, albeit only in a reversible fashion and not in all patients
- Potency of blocking NKCC1 versus KCCs (NKCC1 versus KCC2): approximately equal potency

SMILES: NCC1(CC(=O)O)CCCCC1 [gabapentin]
- Effect on tinnitus (tinnitus [1]): no effects at all

SMILES: C=CC(N)CCC(=O)O (stereo not drawn) [vigabatrin]
- Behavioural correlate of tinnitus [5]: reversibly suppressed
